Data as given in US20260317320A1, “C5AR1 ANTAGONISTS AND USES THEREOF” (Vanqua Bio, Inc., priority 2022, published 2026).
Where two headings read alike, the source gives them in different places.

Tests used:
[1] = target: T1, complement C5a receptor 1 (C5aR1) (Homo sapiens, UniProt P21730); test: β-arrestin recruitment via C5aR1 activation in live CHO-K1 cells (PathHunter), antagonist mode; type: cell-based
T1 construct: β-galactosidase fragment (PathHunter enzyme complementation); host or cells: CHO-K1 (PathHunter CHO-K1 C5aR1 β-arrestin cell line)
T1 sequence (P21730 1-350): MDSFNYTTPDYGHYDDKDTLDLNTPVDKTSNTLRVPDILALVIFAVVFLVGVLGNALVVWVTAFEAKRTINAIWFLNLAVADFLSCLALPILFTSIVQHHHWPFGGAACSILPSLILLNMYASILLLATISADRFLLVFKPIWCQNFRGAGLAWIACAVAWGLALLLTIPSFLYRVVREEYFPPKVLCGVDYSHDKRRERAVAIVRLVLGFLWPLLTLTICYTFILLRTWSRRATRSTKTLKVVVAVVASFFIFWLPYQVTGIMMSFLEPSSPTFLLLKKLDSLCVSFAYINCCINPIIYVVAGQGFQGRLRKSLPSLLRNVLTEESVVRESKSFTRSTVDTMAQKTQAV
Protocol: (§1) Exemplary compounds were evaluated for classical GPCR β-arrestin recruitment via complement C5a receptor 1 (C5aR1) activation in live CHO-K1 cells. This cell line expresses two fragments of the […] protein coupled to β-arrestin and C5aR1. Complementation of the two fragments allows for the assessment of both C5aR1 agonism and antagonism. Recombinant hC5a (EC90) was used as the competing natural agonist against disclosed compounds (more information on the expanded protocol and cell line can be found on the manufacturer's website: PathHunter® CHO-K1 C5aR1 β-arrestin cell line, DiscoverX, Catalog No. 93-0557C2). […] IC50 ranges: A: IC50≤500 nM; B: 500 nM<IC50≤5 uM; C: 5 uM<IC50≤100 uM; D: IC50>100 uM.

[2] = target: T1, complement C5a receptor 1 (C5aR1); test: β-arrestin recruitment via C5aR1 activation in live CHO-K1 cells (PathHunter), agonist mode; type: cell-based
Protocol: as §1

[3] = antagonist mode, recombinant hC5a (EC90) as competing natural agonist, live CHO-K1 cells, read-out: [Antagonist] B-arrestin2 recruitment: Average IC50

| IC50 [1, 3] | [Agonist] B-arrestin2 recruitment: Average EC50 (nM) ([2]; at 10 μM) | [Agonist] B-arrestin2 recruitment: Average EC50 (nM) [2] | IC50 [1] | SMILES |
| --- | --- | --- | --- | --- |
| 5000 to 100000 nM | Non-Active at 10 μM |  |  | Cc1cnc2cc([C@H]3CC[C@@H](c4c(C)ccnc4F)CC3)c(=O)n(Cc3nccnc3C(F)F)c2n1 [146A, 5-((3-(Difluoromethyl)pyrazin-2-yl)methyl)-7-((1s,4s)-4-(2-fluoro-4-methylpyridin-3-yl)cyclohexyl)-3-methylpyrido[2,3-b]pyrazin-6(5H)-one] |
| 5000 to 100000 nM | Non-Active at 10 μM |  |  | Cc1cnc2cc([C@H]3CC[C@H](c4c(C)ccnc4F)CC3)c(=O)n(Cc3nccnc3C)c2n1 [135B, 7-((1r,4r)-4-(2-Fluoro-4-methylpyridin-3-yl)cyclohexyl)-3-methyl-5-((3-methylpyrazin-2-yl)methyl)pyrido[2,3-b]pyrazin-6(5H)-one] |
| 500 to 5000 nM |  | Non-Active |  | COc1cnc2c(cc(C3CCN(c4c(C)cccc4F)CC3)c(=O)n2Cc2ncccc2C(F)(F)F)n1 [compound 65, 7-(1-(2-Fluoro-6-methylphenyl)piperidin-4-yl)-2-methoxy-5-((3-(trifluoromethyl)pyridin-2-yl)methyl)pyrido[2,3-b]pyrazin-6(5H)-one] |
| < 500 nM | Non-Active at 10 μM |  |  | Cc1cnc2cc([C@@H]3CC[C@H](c4c(C)cccc4F)C3)c(=O)n(Cc3ncccc3C(F)(F)F)c2n1 [171B, 7-((1R,3S)-3-(2-Fluoro-6-methylphenyl)cyclopentyl)-3-methyl-5-((3-(trifluoromethyl)pyridin-2-yl)methyl)pyrido[2,3-b]pyrazin-6(5H)-one] |
| < 500 nM |  | Non-Active |  | Cc1cnc2cc(C3CCN(c4ncsc4C)CC3)c(=O)n(Cc3ncccc3C(F)(F)F)c2n1 [compound 131] |
| < 500 nM |  | Non-Active |  | Cc1ccc2cc([C@H]3CC[C@H](c4cnccc4C(F)(F)F)CC3)c(=O)n(Cc3ncccc3C(C)(F)F)c2n1 [compound 254, 1-{[3-(1,1-Difluoroethyl)-2-pyridyl]methyl}-7-methyl-3-{(1r,4r)-4-[4-(trifluoromethyl)-3-pyridyl]cyclohexyl}-1,8-diaza-2(1H)-naphthalenone] |
| 5000 to 100000 nM |  | Non-Active |  | Cc1cnc2cc([C@H]3CC[C@@H](c4c(C)cccc4F)CC3)c(=O)n(Cc3nccnc3C)c2n1 [137A, (S)-7-((1s,4s)-4-(2-Fluoro-6-methylphenyl)cyclohexyl)-3-methyl-5-((3-methylpyrazin-2-yl)methyl)pyrido[2,3-b]pyrazin-6(5H)-one] |
| < 500 nM |  | Non-Active |  | Cc1cnc2cc(C3CCN(c4c(C)cccc4F)CC3)c(=O)n([C@H]3CCC(F)(F)c4nccnc43)c2n1 [149B, (S)-5-(8,8-Difluoro-5,6,7,8-tetrahydroquinoxalin-5-yl)-7-(1-(2-fluoro-6-methylphenyl)piperidin-4-yl)-3-methylpyrido[2,3-b]pyrazin-6(5H)-one] |
| < 500 nM | Non-Active at 10 μM |  |  | Cc1cnc2cc([C@@H]3CC[C@H](c4c(C)cccc4F)C3)c(=O)n(Cc3ncccc3OC(F)F)c2n1 [175B, 5-((3-(Difluoromethoxy)pyridin-2-yl)methyl)-7-((1R,3S)-3-(2-fluoro-6-methylphenyl)cyclopentyl)-3-methylpyrido[2,3-b]pyrazin-6(5H)-one] |
| < 500 nM | Non-Active at 10 μM |  |  | Cc1cnc2cc([C@H]3CC[C@H](c4c(F)cccc4F)CC3)c(=O)n(Cc3ncccc3C3CC3)c2n1 [compound 235, 5-((3-Cyclopropylpyridin-2-yl)methyl)-7-((1r,4r)-4-(2,6-difluorophenyl)cyclohexyl)-3-methylpyrido[2,3-b]pyrazin-6(5H)-one] |
| < 500 nM |  | Non-Active |  | Cc1cnc2cc(C3CCN(c4c(C)cccc4F)CC3)c(=O)n(Cc3ncccc3OC(F)F)c2n1 [compound 66, 5-((3-(Difluoromethoxy)pyridin-2-yl)methyl)-7-(1-(2-fluoro-6-methylphenyl)piperidin-4-yl)-3-methylpyrido[2,3-b]pyrazin-6(5H)-one] |
| < 500 nM |  | Non-Active |  | Cc1ccnc(F)c1N1CCC(c2cc3nccnc3n(Cc3ncccc3C(F)(F)F)c2=O)CC1 [compound 127, 7-(1-(2-Fluoro-4-methylpyridin-3-yl)piperidin-4-yl)-5-((3-(trifluoromethyl)pyridin-2-yl)methyl)pyrido[2,3-b]pyrazin-6(5H)-one] |
| < 500 nM |  | Non-Active |  | Cc1ccc2cc([C@H]3CC[C@H](c4c(C)cccc4F)CC3)c(=O)n(Cc3ncccc3C(F)F)c2n1 [compound 193, 1-((3-(Difluoromethyl)pyridin-2-yl)methyl)-3-((1r,4r)-4-(2-fluoro-6-methylphenyl)cyclohexyl)-7-methyl-1,8-naphthyridin-2(1H)-one] |
| 5000 to 100000 nM |  | Non-Active |  | Cc1cccc(F)c1N1CCC(c2cc3nccnc3n([C@@H]3CCCc4ncccc43)c2=O)CC1 [49a, (R)-7-(1-(2-Fluoro-6-methylphenyl)piperidin-4-yl)-5-(5,6,7,8-tetrahydroquinolin-5-yl)pyrido[2,3-b]pyrazin-6(5H)-one] |
| < 500 nM |  | Non-Active |  | Cc1ccc2cc([C@H]3CC[C@H](c4c(C)cccc4F)CC3)c(=O)n(Cc3nccnc3OCC(F)(F)F)c2n1 [compound 264, 7-Methyl-3-[(1r,4r)-4-(2-fluoro-6-tolyl)cyclohexyl]-1-{[3-(2,2,2-trifluoroethoxy)-2-pyrazinyl]methyl}-1,8-diaza-2(1H)-naphthalenone] |
| 500 to 5000 nM |  | Non-Active |  | COc1cnc2cc(C3CCN(c4c(C)cccc4F)CC3)c(=O)n(Cc3ccccc3C(F)(F)F)c2n1 [compound 58, 7-(1-(2-Fluoro-6-methylphenyl)piperidin-4-yl)-3-methoxy-5-(2-(trifluoromethyl)benzyl)pyrido[2,3-b]pyrazin-6(5H)-one] |
| < 500 nM |  | Non-Active |  | Cc1ccc2cc([C@H]3CC[C@H](c4c(C)cccc4F)CC3)c(=O)n(Cc3ncccc3C3CC3)c2n1 [compound 241, 1-((3-Cyclopropylpyridin-2-yl)methyl)-3-((1r,4r)-4-(2-fluoro-6-methylphenyl)cyclohexyl)-7-methyl-1,8-naphthyridin-2(1H)-one] |
| 500 to 5000 nM | Non-Active at 10 μM |  |  | Cc1cnc2cc([C@H]3CC[C@H](c4ncsc4C)CC3)c(=O)n(Cc3ncccc3C(F)(F)F)c2n1 [compound 163, 3-Methyl-7-((1r,4r)-4-(5-methylthiazol-4-yl)cyclohexyl)-5-((3-(trifluoromethyl)pyridin-2-yl)methyl)pyrido[2,3-b]pyrazin-6(5H)-one] |
| < 500 nM |  | Non-Active |  | Cc1cnc2cc(N3CCN(c4c(C)cccc4F)CC3)c(=O)n(Cc3ncccc3C(F)(F)F)c2n1 [compound 67, 7-(4-(2-Fluoro-6-methylphenyl)piperazin-1-yl)-3-methyl-5-((3-(trifluoromethyl)pyridin-2-yl)methyl)pyrido[2,3-b]pyrazin-6(5H)-one] |
| < 500 nM | Non-Active at 10 μM |  |  | COc1nccc(C)c1[C@H]1CC[C@H](c2cc3ccc(C)nc3n(Cc3ncccc3C3CC3)c2=O)CC1 [compound 252, 1-((3-Cyclopropylpyridin-2-yl)methyl)-3-((1r,4r)-4-(2-methoxy-4-methylpyridin-3-yl)cyclohexyl)-7-methyl-1,8-naphthyridin-2(1H)-one] |
|  |  | Non-Active | 500 to 5000 nM | Cc1cccc(F)c1N1CCC(c2nc3nccnc3n(Cc3ccccc3C(F)(F)F)c2=O)CC1 [compound 39, 3-(1-(2-Fluoro-6-methylphenyl)piperidin-4-yl)-1-(2-(trifluoromethyl)benzyl)pyrazino[2,3-b]pyrazin-2(1H)-one] |
| < 500 nM |  | Non-Active |  | Cc1cccc(F)c1N1CCC(c2cc3nccnc3n(Cc3nccnc3C(F)(F)F)c2=O)CC1 [compound 12, 7-(1-(2-Fluoro-6-methylphenyl)piperidin-4-yl)-5-((3-(trifluoromethyl)pyrazin-2-yl)methyl)pyrido[2,3-b]pyrazin-6(5H)-one] |
| 500 to 5000 nM | Non-Active at 10 μM |  |  | Cc1cnc2cc([C@@H]3CC[C@@H](c4c(C)cccc4F)C3)c(=O)n(Cc3ncccc3C(F)F)c2n1 [187D, 5-((3-(Difluoromethyl)pyridin-2-yl)methyl)-7-((1R,3R)-3-(2-fluoro-6-methylphenyl)cyclopentyl)-3-methylpyrido[2,3-b]pyrazin-6(5H)-one] |
